# How the values were obtained:
# [1] = system: Acinetobacter baumannii ATCC 19606; assay: MIC, spiral gradient endpoint assay, A. baumannii; type: cell-based; settings: for MIC: ATCC19606
# [2] = system: methicillin-resistant Staphylococcus aureus (MRSA) strain BAA-1717 (USA-300); assay: MIC, spiral gradient endpoint assay, MRSA BAA-1717; type: cell-based; settings: for MIC: Staphylococcus aureus, read-out: MIC S. aureus MRSA BAA-1717
# [3] = system: methicillin-resistant Staphylococcus aureus (MRSA) strain BAA-1707 (USA-400; MW2); assay: MIC, spiral gradient endpoint assay, MRSA BAA-1707; type: cell-based; settings: for MIC: Staphylococcus aureus, read-out: MIC S. aureus MRSA BAA-1707
# [4] = system: Escherichia coli D21f2tolC; assay: MIC, spiral gradient endpoint assay, E. coli D21f2tolC; type: cell-based; settings: for MIC: Escherichia coli, D21F2TOLC, read-out: MIC E. coli D21f2toIC
# [5] = system: rifampin-resistant Staphylococcus aureus (RRSA) strain ATCC 12600-Rif (H526N); assay: MIC, spiral gradient endpoint assay, RRSA 12600-Rif; type: cell-based; settings: for MIC: Staphylococcus aureus, ATCC12600, read-out: MIC S. aureus RRSA 12600-Rif
# [6] = molecular target: E. coli RNA polymerase σ^70 holoenzyme (Escherichia coli, UniProt P0A8T7+P0A8V2); assay: Fluorescence-detected RNA polymerase assay, E. coli RNA polymerase; type: biochemical; settings: read-out: IC50 E. coli RNAP
# Burkholderia mallei CHN7 = assay: microbe, parasite or virus in culture; type: cell-based; settings: for MIC: Burkholderia mallei, CHN7, read-out: MIC B. mallei CHN7
# [7] = molecular target: S. aureus RNA polymerase core enzyme, S. aureus σ^A (Staphylococcus aureus, UniProt P47768+Q2G0N5); assay: Fluorescence-detected RNA polymerase assay, S. aureus RNA polymerase; type: biochemical; settings: read-out: IC50 S. aureus RNAP
# [8] = system: Francisella tularensis SCHU4; assay: microbe, parasite or virus in culture; type: cell-based; settings: for MIC: Francisella tularensis, SCHU4, read-out: MIC F. tularensis SCHU4
# [9] = molecular target: M. tuberculosis RNA polymerase core enzyme, M. tuberculosis σ^A (Mycobacterium tuberculosis, UniProt P9WGY7+P9WGY9); assay: Fluorescence-detected RNA polymerase assay, M. tuberculosis RNA polymerase; type: biochemical; settings: read-out: IC50 M. tuberculosis RNAP
# Chain of M. tuberculosis RNA polymerase core enzyme, M. tuberculosis σ^A (P9WGI1 whole entry): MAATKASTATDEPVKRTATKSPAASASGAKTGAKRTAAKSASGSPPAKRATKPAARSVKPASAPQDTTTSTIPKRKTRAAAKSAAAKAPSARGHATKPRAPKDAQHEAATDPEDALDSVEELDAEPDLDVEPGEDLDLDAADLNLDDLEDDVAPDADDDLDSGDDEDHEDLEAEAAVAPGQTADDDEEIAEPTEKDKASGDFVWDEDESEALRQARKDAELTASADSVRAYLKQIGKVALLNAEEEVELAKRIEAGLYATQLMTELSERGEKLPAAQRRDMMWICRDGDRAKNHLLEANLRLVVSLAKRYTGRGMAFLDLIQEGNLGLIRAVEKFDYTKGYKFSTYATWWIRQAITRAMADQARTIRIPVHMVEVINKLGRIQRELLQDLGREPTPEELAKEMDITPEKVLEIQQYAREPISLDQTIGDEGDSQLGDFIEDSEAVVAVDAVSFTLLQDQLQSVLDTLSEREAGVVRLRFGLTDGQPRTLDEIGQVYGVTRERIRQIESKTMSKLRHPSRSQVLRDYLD
# Chain of M. tuberculosis RNA polymerase core enzyme, M. tuberculosis σ^A (P9WGY5 whole entry, further chain): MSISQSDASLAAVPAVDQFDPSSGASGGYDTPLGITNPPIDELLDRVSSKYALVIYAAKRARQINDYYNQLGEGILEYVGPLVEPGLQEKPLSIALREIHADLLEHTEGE
# Chain of M. tuberculosis RNA polymerase core enzyme, M. tuberculosis σ^A (P9WGY7 whole entry): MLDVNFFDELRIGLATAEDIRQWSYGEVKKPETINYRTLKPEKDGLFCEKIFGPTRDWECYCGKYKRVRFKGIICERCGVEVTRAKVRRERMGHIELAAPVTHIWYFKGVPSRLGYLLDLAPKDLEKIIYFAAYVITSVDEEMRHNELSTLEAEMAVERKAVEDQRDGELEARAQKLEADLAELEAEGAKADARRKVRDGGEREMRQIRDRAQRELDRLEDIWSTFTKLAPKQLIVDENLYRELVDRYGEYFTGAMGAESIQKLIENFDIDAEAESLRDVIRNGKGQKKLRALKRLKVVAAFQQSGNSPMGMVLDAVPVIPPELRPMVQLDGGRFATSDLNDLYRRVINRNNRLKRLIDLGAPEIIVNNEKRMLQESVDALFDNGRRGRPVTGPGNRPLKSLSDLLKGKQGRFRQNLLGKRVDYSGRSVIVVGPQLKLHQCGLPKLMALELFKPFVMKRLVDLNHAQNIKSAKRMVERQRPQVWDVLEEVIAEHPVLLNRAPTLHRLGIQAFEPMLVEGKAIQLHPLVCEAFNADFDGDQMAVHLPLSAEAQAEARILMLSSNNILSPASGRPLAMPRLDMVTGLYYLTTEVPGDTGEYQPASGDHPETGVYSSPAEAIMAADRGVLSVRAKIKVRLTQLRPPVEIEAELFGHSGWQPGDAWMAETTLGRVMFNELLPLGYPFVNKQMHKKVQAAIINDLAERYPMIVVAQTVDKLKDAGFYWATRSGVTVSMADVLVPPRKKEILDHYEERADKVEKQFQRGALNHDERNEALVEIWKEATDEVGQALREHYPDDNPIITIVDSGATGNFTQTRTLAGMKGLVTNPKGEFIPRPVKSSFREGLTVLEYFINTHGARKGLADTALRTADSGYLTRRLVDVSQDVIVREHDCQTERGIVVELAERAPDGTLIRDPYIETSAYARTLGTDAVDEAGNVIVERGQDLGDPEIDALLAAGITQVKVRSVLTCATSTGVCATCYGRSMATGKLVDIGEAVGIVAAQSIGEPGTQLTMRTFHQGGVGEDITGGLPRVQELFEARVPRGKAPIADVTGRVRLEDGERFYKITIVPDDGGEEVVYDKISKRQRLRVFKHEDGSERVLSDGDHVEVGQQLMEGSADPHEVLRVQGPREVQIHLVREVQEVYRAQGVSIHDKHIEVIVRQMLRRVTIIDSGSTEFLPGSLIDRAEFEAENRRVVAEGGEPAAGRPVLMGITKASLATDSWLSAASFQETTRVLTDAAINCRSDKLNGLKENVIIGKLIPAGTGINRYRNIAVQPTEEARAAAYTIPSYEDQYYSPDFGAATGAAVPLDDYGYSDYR
# Chain of M. tuberculosis RNA polymerase core enzyme, M. tuberculosis σ^A (P9WGY9 whole entry): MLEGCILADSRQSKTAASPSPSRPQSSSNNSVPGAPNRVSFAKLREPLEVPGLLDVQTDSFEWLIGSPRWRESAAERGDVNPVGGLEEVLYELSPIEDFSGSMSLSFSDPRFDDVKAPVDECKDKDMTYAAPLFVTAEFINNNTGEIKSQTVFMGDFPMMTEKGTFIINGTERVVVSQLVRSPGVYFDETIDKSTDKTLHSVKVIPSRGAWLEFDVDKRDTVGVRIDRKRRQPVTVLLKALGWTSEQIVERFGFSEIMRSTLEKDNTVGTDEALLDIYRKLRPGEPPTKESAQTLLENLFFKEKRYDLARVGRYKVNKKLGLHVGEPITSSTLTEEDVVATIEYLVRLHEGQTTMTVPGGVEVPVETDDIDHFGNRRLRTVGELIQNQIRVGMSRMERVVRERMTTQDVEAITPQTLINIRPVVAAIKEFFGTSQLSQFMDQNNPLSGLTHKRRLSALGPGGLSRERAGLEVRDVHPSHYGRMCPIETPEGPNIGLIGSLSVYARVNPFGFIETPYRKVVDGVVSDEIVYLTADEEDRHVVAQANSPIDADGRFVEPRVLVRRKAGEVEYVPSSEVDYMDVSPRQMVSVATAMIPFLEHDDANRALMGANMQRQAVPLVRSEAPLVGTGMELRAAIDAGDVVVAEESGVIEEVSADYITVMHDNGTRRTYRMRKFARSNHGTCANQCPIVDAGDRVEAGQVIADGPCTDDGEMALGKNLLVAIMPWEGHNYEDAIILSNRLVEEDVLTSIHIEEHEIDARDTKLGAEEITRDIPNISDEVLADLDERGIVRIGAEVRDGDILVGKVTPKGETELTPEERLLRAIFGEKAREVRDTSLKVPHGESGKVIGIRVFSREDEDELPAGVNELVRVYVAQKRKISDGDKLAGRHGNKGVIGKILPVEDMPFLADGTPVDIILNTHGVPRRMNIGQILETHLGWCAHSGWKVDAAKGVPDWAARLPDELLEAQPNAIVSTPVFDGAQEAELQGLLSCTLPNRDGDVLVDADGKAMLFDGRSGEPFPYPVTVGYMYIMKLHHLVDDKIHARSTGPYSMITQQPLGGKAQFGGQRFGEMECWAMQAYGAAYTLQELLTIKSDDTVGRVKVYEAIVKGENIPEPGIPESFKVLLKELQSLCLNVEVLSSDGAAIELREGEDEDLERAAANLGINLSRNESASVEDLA
# Chain of M. tuberculosis RNA polymerase core enzyme, M. tuberculosis σ^A (P9WGZ1 whole entry, further chain): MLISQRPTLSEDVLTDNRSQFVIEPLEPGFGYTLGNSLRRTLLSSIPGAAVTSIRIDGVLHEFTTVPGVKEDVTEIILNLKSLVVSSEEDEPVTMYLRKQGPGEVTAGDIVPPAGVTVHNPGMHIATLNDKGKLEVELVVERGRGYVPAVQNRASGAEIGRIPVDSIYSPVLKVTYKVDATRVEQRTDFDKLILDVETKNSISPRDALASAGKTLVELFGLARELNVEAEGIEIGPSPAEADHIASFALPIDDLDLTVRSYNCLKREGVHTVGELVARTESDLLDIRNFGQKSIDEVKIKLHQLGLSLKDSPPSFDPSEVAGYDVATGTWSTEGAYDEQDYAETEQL
# [10] = system: Staphylococcus aureus ATCC 12600; assay: MIC, spiral gradient endpoint assay, S. aureus ATCC 12600; type: cell-based; settings: ATCC12600; for MIC: Staphylococcus aureus ATCC 12600
# [11] = system: Mycobacterium tuberculosis H37Rv; assay: MIC, microplate Alamar Blue assay, M. tuberculosis; type: cell-based
# [12] = system: Burkholderia pseudomallei Human/Blood/OH/US/1994; assay: microbe, parasite or virus in culture; type: cell-based; settings: for MIC: Burkholderia pseudomallei, read-out: MIC B. pseudomallei Human/Blood/OH
# Brucella melitensis 16M = assay: microbe, parasite or virus in culture; type: cell-based; settings: for MIC: Brucella melitensis, 16M, read-out: MIC B. melitensis 16M
# [13] = system: Bacillus anthracis Vollum 1b; assay: microbe, parasite or virus in culture; type: cell-based; settings: for MIC: Bacillus anthracis, VOLLUM1B, read-out: MIC B. anthracis Vollum-1b
# [14] = system: vancomycin-intermediate Staphylococcus aureus (VISA) strain NRS 1; assay: MIC, spiral gradient endpoint assay, VISA NRS 1; type: cell-based; settings: for MIC: Staphylococcus aureus, read-out: MIC S. aureus VISA NRS1
# [15] = system: linezolid-resistant Staphylococcus aureus (LRSA) strain NRS 120; assay: MIC, spiral gradient endpoint assay, LRSA NRS 120; type: cell-based; settings: for MIC: Staphylococcus aureus, NRS120, read-out: MIC S. aureus LRSA NRS120
# [16] = system: methicillin-resistant Staphylococcus aureus (MRSA) strain BAA-1707 (USA-400, MW2); assay: Antibacterial efficacy in mouse model of Staphylococcus aureus systemic infection (peritonitis model); type: in vivo, Swiss Webster mice; settings: mice
# Yersinia pestis C092 = assay: microbe, parasite or virus in culture; type: cell-based
# [17] = Acinetobacter baumannii ATCC 19606
# [18] = intravenous administration 0 h post-infection
# [19] = oral administration 1 h pre-infection
compound,measurement,setting,value
"COC(=O)N/C=C/CCC(C)c1cc(O)c(C(=O)C(C)=Cc2ccc(CCCC(F)(F)F)s2)c(=O)o1 (mixture of isomers) [APY81, methyl ((1E)-5-(4-hydroxy-3-(2-methyl-3-(5-(4,4,4-trifluorobutyl)thiophen-2-yl)acryloyl)-2-oxo-2H-pyran-6-yl)hex-1-en-1-yl)carbamate]",MIC,[1]; [17],20 µg/mL
same,MIC,[2],0.9 µg/mL
same,MIC,[3],0.5 µg/mL
same,MIC,[4],0.08 µg/mL
same,MIC,[5],0.8 µg/mL
same,IC50,[6],10 nM
same,MIC,Burkholderia mallei CHN7,10 µg/mL
same,IC50,[7],30 nM
same,MIC,[8],30 µg/mL
same,IC50,[9],50 nM
same,MIC,[10],0.4 µg/mL
same,MIC,[11],10 µg/mL
same,MIC,[12],10 µg/mL
same,MIC,Brucella melitensis 16M,2 µg/mL
same,MIC,[13],2 µg/mL
"COC(=O)N/C=C/CCC(C)c1cc(O)c(C(=O)C(C)=Cc2ccc(CCC(F)(F)F)s2)c(=O)o1 (mixture of isomers) [APY61, methyl (E)-5-(5-((E/Z)-3-(5-(3,3,3-trifluoropropyl)thiophen-2-yl)-2-methylacryloyl)-4-hydroxy-6-oxo-6H-pyran-2-yl)hex-1-enylcarbamate]",MIC,[1]; [17],10 µg/mL
same,MIC,[2],0.9 µg/mL
same,MIC,[3],0.9 µg/mL
same,MIC,[4],0.2 µg/mL
same,MIC,[5],1 µg/mL
same,IC50,[6],20 nM
same,MIC,Burkholderia mallei CHN7,30 µg/mL
same,MIC,[8],30 µg/mL
same,MIC,[14],0.4 µg/mL
same,MIC,[10],0.7 µg/mL
same,MIC,[11],10 µg/mL
same,MIC,[15],0.4 µg/mL
same,PD50,[16]; [18],20 mg/kg
same,MIC,[12],30 µg/mL
same,MIC,Brucella melitensis 16M,> 50 µg/mL
same,MIC,[13],6 µg/mL
"COC(=O)N/C=C/CCC(C)c1cc(O)c(C(=O)C(C)=Cc2ccc(OCC(F)(F)F)s2)c(=O)o1 (mixture of isomers) [APY116, methyl ((1E)-5-(4-hydroxy-3-(2-methyl-3-(5-(2,2,2-trifluoroethoxy)thiophen-2-yl)acryloyl)-2-oxo-2H-pyran-6-yl)hex-1-en-1-yl)carbamate]",MIC,[1]; [17],> 40 µg/mL
same,MIC,[2],2 µg/mL
same,MIC,[3],2 µg/mL
same,MIC,[4],0.2 µg/mL
same,MIC,[5],2 µg/mL
same,IC50,[6],30 nM
same,MIC,[14],0.7 µg/mL
same,MIC,[10],1 µg/mL
same,MIC,[11],6 µg/mL
same,MIC,[15],0.8 µg/mL
same,PD50,[16]; [18],20 mg/kg
same,PD50,[16]; [19],50 mg/kg
"COC(=O)N/C=C/CCCc1cc(O)c(C(=O)C(C)=Cc2ccc(CCCC(F)(F)F)s2)c(=O)o1 (mixture of isomers) [APY90, methyl ((1E)-5-(4-hydroxy-3-(2-methyl-3-(5-(4,4,4-trifluorobutyl)thiophen-2-yl)acryloyl)-2-oxo-2H-pyran-6-yl)pent-1-en-1-yl)carbamate]",MIC,[1]; [17],10 µg/mL
same,MIC,[2],2 µg/mL
same,MIC,[3],2 µg/mL
same,MIC,[4],0.07 µg/mL
same,MIC,[5],2 µg/mL
same,IC50,[6],30 nM
same,IC50,[7],800 nM
same,IC50,[9],300 nM
same,MIC,[10],0.9 µg/mL
same,MIC,[11],10 µg/mL
"COC(=O)N/C=C/CCCc1cc(O)c(C(=O)C(C)=Cc2ccc(CCC(C)C)s2)c(=O)o1 (mixture of isomers) [APY91, methyl ((1E)-5-(4-hydroxy-3-(3-(5-isopentylthiophen-2-yl)-2-methylacryloyl)-2-oxo-2H-pyran-6-yl)pent-1-en-1-yl)carbamate]",MIC,[1]; [17],9 µg/mL
same,MIC,[2],2 µg/mL
same,MIC,[3],2 µg/mL
same,MIC,[4],0.08 µg/mL
same,MIC,[5],2 µg/mL
same,IC50,[6],20 nM
same,IC50,[7],600 nM
same,IC50,[9],400 nM
same,MIC,[10],0.7 µg/mL
same,MIC,[11],50 µg/mL
"COC(=O)N/C=C/CCC(C)c1cc(O)c(C(=O)C(C)=Cc2ccc(CC(C)C)s2)c(=O)o1 (mixture of isomers) [APY60, methyl (E)-5-(4-hydroxy-5-((E/Z)-3-(5-isobutylthiophen-2-yl)-2-methylacryloyl)-6-oxo-6H-pyran-2-yl)hex-1-enylcarbamate]",MIC,[1]; [17],9 µg/mL
same,MIC,[2],0.5 µg/mL
same,MIC,[3],0.4 µg/mL
same,MIC,[4],0.2 µg/mL
same,MIC,[5],0.7 µg/mL
same,IC50,[6],10 nM
same,MIC,Burkholderia mallei CHN7,30 µg/mL
same,MIC,[8],10 µg/mL
same,MIC,[10],0.4 µg/mL
same,MIC,[11],10 µg/mL
same,PD50,[16]; [18],20 mg/kg
same,MIC,[12],30 µg/mL
same,MIC,Brucella melitensis 16M,6 µg/mL
same,MIC,[13],3 µg/mL
"CCCC/C(C)=C/C=C(\C)C(=O)c1c(O)cc([C@H](C)CC/C=C/NC(=O)OC)oc1=O [Myx B, myxopyronin B, reference compound]",inhibition of Acinetobacter baumannii (in words),[1],does not inhibit
same,MIC A. baumannii 19606,[1]; [17],>40 µg/mL
same,MIC S. aureus MRSA BAA-1717,[2],0.8 µg/mL
same,MIC Y. pestis C092,Yersinia pestis C092,50 µg/mL
same,MIC S. aureus MRSA BAA-1707,[3],0.9 µg/mL
same,MIC E. coli D21f2toIC,[4]; Escherichia coli D21f2tolC,0.1 µg/mL
same,MIC S. aureus RRSA 12600-Rif,[5],1 µg/mL
same,IC50,[6],10 nM
same,MIC B. mallei CHN7,Burkholderia mallei CHN7,6 µg/mL
same,IC50,[7],70 nM
same,MIC F. tularensis SCHU4,[8],2 µg/mL
same,MIC S. aureus VISA NRS1,[14],0.5 µg/mL
same,IC50,[9],100 nM
same,MIC S. aureus 12600,[10]; Staphylococcus aureus,0.8 µg/mL
same,MIC M. tuberculosis H37Rv,[11],2 µg/mL
same,MIC S. aureus LRSA NRS120,[15],0.5 µg/mL
same,PD50,[16]; [18],20 mg/kg
same,PD50,[16]; [19],50 mg/kg
same,MIC B. pseudomallei Human/Blood/OH,[12],30 µg/mL
same,MIC B. melitensis 16M,Brucella melitensis 16M,2 µg/mL
same,MIC B. anthracis Vollum-1b,[13],6 µg/mL
